According to patent publication US20260265305A1, “POLYPEPTIDE DERIVATIVE FOR ORAL DELIVERY” (Hangzhou Sciwind Biosciences Co., Ltd., priority 2023, published 2026):
Numbered stars: 1 amine (or outer) side, 2 acyl side, 3 side chain; on linkers, the order of the positions; unused ones are H or OH. Peptide text beside a SMILES is read from it. * marks the point of attachment. C20 diacid = O=C(O)CCCCCCCCCCCCCCCCCCC(=O)*; C18 diacid = O=C(O)CCCCCCCCCCCCCCCCC(=O)*; γGlu = O=C(O)[C@H](CCC(=O)[*:2])N[*:1]; βAsp = O=C(O)[C@H](CC(=O)[*:2])N[*:1]; Trx = NC[C@H]1CC[C@H](C(=O)O)CC1; AEEA = NCCOCCOCC(=O)O

Key:
[1] = biological target: T1, amylin receptor (hAMY3R) (Homo sapiens, UniProt O60896+P30988); test: Amylin receptor agonism testing, CRE-luciferase assay in stably transfected CHO-K1/Ga15/AMY3 cells; assay type: cell-based; conditions: relative to D1 as benchmark
T1 construct: host or cells: CHO-K1/Ga15/AMY3 cells, further stably transfected with a CRE-luciferase plasmid
T1 sequence (P30988 25-474): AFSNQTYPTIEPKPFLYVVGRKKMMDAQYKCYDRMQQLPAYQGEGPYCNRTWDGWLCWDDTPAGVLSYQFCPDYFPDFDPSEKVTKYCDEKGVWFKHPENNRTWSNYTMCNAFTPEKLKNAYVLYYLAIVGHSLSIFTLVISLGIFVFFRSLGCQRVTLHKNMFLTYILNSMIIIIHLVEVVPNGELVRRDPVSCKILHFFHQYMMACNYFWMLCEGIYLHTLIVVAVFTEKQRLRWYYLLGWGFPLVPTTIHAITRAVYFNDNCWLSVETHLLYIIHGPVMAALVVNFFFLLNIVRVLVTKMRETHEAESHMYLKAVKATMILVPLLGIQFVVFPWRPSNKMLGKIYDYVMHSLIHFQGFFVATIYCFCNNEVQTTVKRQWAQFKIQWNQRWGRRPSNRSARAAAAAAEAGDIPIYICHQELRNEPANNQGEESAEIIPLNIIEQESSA
T1 sequence (O60896 24-148): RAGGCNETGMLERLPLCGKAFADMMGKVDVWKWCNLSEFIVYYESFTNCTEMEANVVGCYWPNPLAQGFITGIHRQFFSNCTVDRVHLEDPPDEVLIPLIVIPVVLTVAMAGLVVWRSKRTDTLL

[2] = biological target: T2, calcitonin receptor (hCTR) (Homo sapiens, UniProt P30988); test: Calcitonin receptor agonism, CRE-luciferase assay in stably transfected CHO-K1/CALCR/Ga15 cells; assay type: cell-based; conditions: for EC50: incubation of 24 hours, Table 4, read-out: EC50, activity against the calcitonin receptor in cells; for Fold change in activity against hCTR: relative to D1 as benchmark
T2 construct: host or cells: CHO-K1/CALCR/Ga15 cells, further stably transfected with a CRE-luciferase plasmid
T2 sequence (P30988 25-474): T1 sequence (P30988 25-474)
Method: Using the standard protocol, CHO-K1/CALCR/Ga15 cells (purchased from GenScript, with the calcitonin receptor constructed already) were transfected with a plasmid containing a luciferase expression cassette driven by multiple copies of cAMP response elements (CREs). The cells were cultured in an F12 medium containing 200 ug/mL Zeocin, 2 ug/mL puromycin, and 100 ug/mL hygromycin to afford a stably transfected calcitonin receptor/CRE-luc cell line.
To each well of a white 96-well plate was added 50 μL of the tested sample solution at a respective concentration.
The stably transfected calcitonin receptor/CRE-luc CHO cells were resuspended in the growth medium at a certain density, and 50 μL of the cell suspension was added at a density of about 20,000 cells per well to the white 96-well plate containing the tested sample solution. After incubation of 24 hours at 37° C. and 5% CO2, 100 μL of a Luciferase substrate was added to each well, incubated for 3 minutes, and finally was tested for luminescence on SpectraMax L (Molecular Devices) with the software SoftMax Pro 7.0.3 GxP. A standard curve was plotted using the fluorescent intensities for calculation of EC50.

[3] = Heat accelerated stability assay of polypeptide solutions (40° C., pH about 7.4), reversed phase chromatography; assay type: physicochemical; conditions: 40° C.; for Concentration change on 26 d / Concentration change on 7 d: pH about 7.4, 1 mg/mL; for Concentration change on 26 d / Purity change on 26 d: Day 26; for Purity change on 7 d / Purity change on 26 d: reversed phase chromatography 214 nm; for Purity change on 7 d / Concentration change on 7 d: Day 7; for Purity change on 7 d: purity on 7 d − purity on 0 d; for Purity change on 26 d: purity on 26 d − purity on 0 d
Method: A stability test chamber (BINDER GmbH), a 0.01 mg-readability balance (METTLER TOLEDO), a pH meter (METTLER TOLEDO), a biosafety cabinet (ESCO), T2G-II small-sized motor-driven capping machine (Changsha zhongya pharmaceutical equipment co. LTD), a high-speed refrigerated centrifuge (Eppendorf), a sterilizer cabinet (Shinva Medical), Agilent 1260 high-performance liquid chromatographer, and Sepax Bio-C18 4.6*250 mm 3 μm 200 Å reversed phase column were used.
Reagents and consumables included: ultrapure water (18.2 MΩ, self-made), acetonitrile (HPLC grade), trifluoroacetic acid (HPLC grade), sodium dihydrogen phosphate (pharmaceutical grade, Hunan Jiudian Hongyang Pharmaceutical Co., Ltd), hydrochloric acid (pharmaceutical grade, Hunan Er-Kang Pharmaceutical Co., Ltd), sodium hydroxide (Analytical Reagent grade, Hushi®, Sinopharm Chemical Reagent Co., Ltd), vials, rubber stoppers, disposable syringes, and sterile filters.
The lyophilized powder (1 mg/mL) of the polypeptide derivative prepared in accordance with the method of Example 1 was mixed with sodium dihydrogen phosphate (1.42 mg/mL) and dissolved in ultrapure water in the indicated mass-volume ratios. After adjusting pH to about 7.4 with hydrochloric acid/sodium hydroxide, the solution was filtered into a sterilized vial in a clean bench using a 0.22 μm sterile filter. The vial was then capped and placed into the stability test chamber at 40° C. Detections were made on Days 7 (7d) and 26 (26d), and during the assay, changes in the characteristics and properties of the polypeptide were observed and recorded. The sample was then centrifuged for 3 min at 10,000 rpm at 4° C., and the supernatant was transferred to a liquid phase sample vial for detecting the concentration and purity of the polypeptides using liquid phase chromatography described as below, wherein the concentration of the polypeptide=peak area/injection volume/extinction coefficient/60×flow rate, and the purity of the polypeptide=target peak area/total peak area×100%.
Conditions of the reversed phase chromatography Flow rate: 1.0 ml/min; Autosampler temperature: 15° C.; Column temperature: 25° C.; Detection wavelengths: 280 nm and 214 nm; Mobile phase A: 100% H2O+0.05% TFA; Mobile phase B: 100% ACN; and Gradient of elution listed in Table 6: […]

SMILES	Fold change in activity against hAMY3R [1]	EC50 [2]	Fold change in activity against hCTR [2]	Concentration change on 26 d [3]	Purity change on 7 d [3]	Purity change on 26 d [3]	Concentration change on 7 d [3]
CC(C)C[C@H](NC(=O)[C@H](CCCNC(=N)N)NC(=O)CNC(=O)[C@H](CC(C)C)NC(=O)[C@@H](NC(=O)[C@H](C)NC(=O)[C@@H](NC(=O)[C@H](CO)NC(=O)[C@H](CC(C)C)NC(=O)[C@H](CCC(N)=O)NC(=O)[C@H](CO)NC(=O)[C@H](C)NC(=O)CC[C@H](NC(=O)CCCCCCCCCCCCCCCCCCC(=O)O)C(=O)O)[C@@H](C)O)C(C)C)C(=O)N[C@@H](CO)C(=O)N[C@@H](CC(=O)O)C(=O)N[C@@H](CCC(=O)O)C(=O)N[C@@H](CC(C)C)C(=O)N[C@@H](Cc1c[nH]cn1)C(=O)N[C@@H](CCCNC(=N)N)C(=O)N[C@@H](CC(C)C)C(=O)N[C@@H](CCC(N)=O)C(=O)N[C@@H](CC(=O)O)C(=O)N[C@@H](Cc1ccc(O)cc1)C(=O)N1CCC[C@H]1C(=O)N[C@@H](CCCNC(=N)N)C(=O)N[C@H](C(=O)N[C@@H](CC(=O)O)C(=O)N[C@H](C(=O)NCC(=O)N[C@@H](CO)C(=O)NCC(=O)N[C@@H](CO)C(=O)N1CCC[C@H]1C(N)=O)C(C)C)[C@@H](C)O [M6] ({C20 diacid-γGlu}-ASQLSTAVLGRLSDELHRLQDYPRTDVGSGSP-NH2)	2.118	0.028 nM	3.071	−1.865%	1.64%	No change	
CC(C)C[C@H](NC(=O)[C@H](CCCNC(=N)N)NC(=O)CNC(=O)[C@H](CC(C)C)NC(=O)[C@@H](NC(=O)[C@H](C)NC(=O)[C@@H](NC(=O)[C@H](CO)NC(=O)[C@H](CC(C)C)NC(=O)[C@H](CCC(N)=O)NC(=O)[C@H](CO)NC(=O)[C@H](C)NC(=O)[C@H](CCC(=O)O)NC(=O)CCCCCCCCCCCCCCCCC(=O)O)[C@@H](C)O)C(C)C)C(=O)N[C@@H](CO)C(=O)N[C@@H](CC(=O)O)C(=O)N[C@@H](CCC(=O)O)C(=O)N[C@@H](CC(C)C)C(=O)N[C@@H](Cc1c[nH]cn1)C(=O)N[C@@H](CCCNC(=N)N)C(=O)N[C@@H](CC(C)C)C(=O)N[C@@H](CCC(N)=O)C(=O)N[C@@H](CC(=O)O)C(=O)N[C@@H](Cc1ccc(O)cc1)C(=O)N1CCC[C@H]1C(=O)N[C@@H](CCCNC(=N)N)C(=O)N[C@H](C(=O)N[C@@H](CC(=O)O)C(=O)N[C@H](C(=O)NCC(=O)N[C@@H](CO)C(=O)NCC(=O)N[C@@H](CO)C(=O)N1CCC[C@H]1C(N)=O)C(C)C)[C@@H](C)O [M11] ({C18 diacid}-EASQLSTAVLGRLSDELHRLQDYPRTDVGSGSP-NH2)	2.250	0.071 nM	1.211	−9.840%	1.01%	−2.93%	−3.472%
CC(C)C[C@H](NC(=O)[C@H](CCCNC(=N)N)NC(=O)CNC(=O)[C@H](CC(C)C)NC(=O)[C@@H](NC(=O)[C@H](C)NC(=O)[C@@H](NC(=O)[C@H](CO)NC(=O)[C@H](CC(C)C)NC(=O)[C@H](CCC(N)=O)NC(=O)[C@H](CO)NC(=O)[C@H](C)NC(=O)C[C@H](NC(=O)CCCCCCCCCCCCCCCCCCC(=O)O)C(=O)O)[C@@H](C)O)C(C)C)C(=O)N[C@@H](CO)C(=O)N[C@@H](CC(=O)O)C(=O)N[C@@H](CCC(=O)O)C(=O)N[C@@H](CC(C)C)C(=O)N[C@@H](Cc1c[nH]cn1)C(=O)N[C@@H](CCCNC(=N)N)C(=O)N[C@@H](CC(C)C)C(=O)N[C@@H](CCC(N)=O)C(=O)N[C@@H](CC(=O)O)C(=O)N[C@@H](Cc1ccc(O)cc1)C(=O)N1CCC[C@H]1C(=O)N[C@@H](CCCNC(=N)N)C(=O)N[C@H](C(=O)N[C@@H](CC(=O)O)C(=O)N[C@H](C(=O)NCC(=O)N[C@@H](CO)C(=O)NCC(=O)N[C@@H](CO)C(=O)N1CCC[C@H]1C(N)=O)C(C)C)[C@@H](C)O [M12] ({C20 diacid-βAsp}-ASQLSTAVLGRLSDELHRLQDYPRTDVGSGSP-NH2)	2.118	0.073 nM	1.178	−8.378%	1.12%	−1.96%	No change (concentration change of less than 1% (denoted as “no change”))
CC(C)C[C@H](NC(=O)[C@H](CCCNC(=N)N)NC(=O)CNC(=O)[C@H](CC(C)C)NC(=O)[C@@H](NC(=O)[C@H](C)NC(=O)[C@@H](NC(=O)[C@H](CO)NC(=O)[C@H](CC(C)C)NC(=O)[C@H](CCC(N)=O)NC(=O)[C@H](CO)NC(=O)[C@H](C)NC(=O)[C@H]1CC[C@H](CNC(=O)CCCCCCCCCCCCCCCCCCC(=O)O)CC1)[C@@H](C)O)C(C)C)C(=O)N[C@@H](CO)C(=O)N[C@@H](CC(=O)O)C(=O)N[C@@H](CCC(=O)O)C(=O)N[C@@H](CC(C)C)C(=O)N[C@@H](Cc1c[nH]cn1)C(=O)N[C@@H](CCCNC(=N)N)C(=O)N[C@@H](CC(C)C)C(=O)N[C@@H](CCC(N)=O)C(=O)N[C@@H](CC(=O)O)C(=O)N[C@@H](Cc1ccc(O)cc1)C(=O)N1CCC[C@H]1C(=O)N[C@@H](CCCNC(=N)N)C(=O)N[C@H](C(=O)N[C@@H](CC(=O)O)C(=O)N[C@H](C(=O)NCC(=O)N[C@@H](CO)C(=O)NCC(=O)N[C@@H](CO)C(=O)N1CCC[C@H]1C(N)=O)C(C)C)[C@@H](C)O [M14] ({C20 diacid-Trx}-ASQLSTAVLGRLSDELHRLQDYPRTDVGSGSP-NH2)	0.079		0.147	−8.377%	No change	−1.77%	−3.464%
CC(C)C[C@H](NC(=O)[C@H](CCCNC(=N)N)NC(=O)CNC(=O)[C@H](CC(C)C)NC(=O)[C@@H](NC(=O)[C@H](C)NC(=O)[C@@H](NC(=O)[C@H](CO)NC(=O)[C@H](CC(C)C)NC(=O)[C@H](CCC(N)=O)NC(=O)[C@H](CO)NC(=O)[C@H](C)NC(=O)COCCOCCNC(=O)COCCOCCNC(=O)[C@H]1CC[C@H](CNC(=O)CCCCCCCCCCCCCCCCC(=O)O)CC1)[C@@H](C)O)C(C)C)C(=O)N[C@@H](CO)C(=O)N[C@@H](CC(=O)O)C(=O)N[C@@H](CCC(=O)O)C(=O)N[C@@H](CC(C)C)C(=O)N[C@@H](Cc1c[nH]cn1)C(=O)N[C@@H](CCCNC(=N)N)C(=O)N[C@@H](CC(C)C)C(=O)N[C@@H](CCC(N)=O)C(=O)N[C@@H](CC(=O)O)C(=O)N[C@@H](Cc1ccc(O)cc1)C(=O)N1CCC[C@H]1C(=O)N[C@@H](CCCNC(=N)N)C(=O)N[C@H](C(=O)N[C@@H](CC(=O)O)C(=O)N[C@H](C(=O)NCC(=O)N[C@@H](CO)C(=O)NCC(=O)N[C@@H](CO)C(=O)N1CCC[C@H]1C(N)=O)C(C)C)[C@@H](C)O [M28] ({C18 diacid-Trx-AEEA-AEEA}-ASQLSTAVLGRLSDELHRLQDYPRTDVGSGSP-NH2)	18.000		0.966				
